The source of these data is patent publication US20170334899A1, “AMINO-SUBSTITUTED ISOTHIAZOLES” (Bayer Pharma Aktiengesellschaft, priority 2014, published 2017).

SMILES strings stand for the structures. pIC50: −log10 of the molar value. Where a name gives a salt, the structure may show the parent alone.

This assay has as its target T1, CDK2/CycE (Homo sapiens, UniProt P24941).
T1 construct: GST; purchased ProQinase GmbH (Freiburg, Germany); host or cells: insect cells (Sf9)
Briefly: CDK2/CycE kinase assay (TR-FRET). It is filed as biochemical. The settings on record: avg, read-out: CDK2 avg (IC50 [mol/l]). The method, boiled down: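 Read-out is a TR-FRET 665/620 nm emission ratio from EDTA-stopped reactions detected with anti-pRB(pSer807/pSer811), Eu-labelled anti-mouse IgG and streptavidin-XL665, scaled between no-enzyme and uninhibited wells. Reaction: Sf9-expressed GST-CDK2/GST-CycE, 15 min compound preincubation, 10 μM ATP, 0.75 μM biotin-peptide, 25 min, 22° C., pH 8.0 Tris buffer.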
(TR-FRET usually uses a lanthanide donor and a delayed reading to cut background.)
Consider `Cc1nsc(Nc2cnc3ccccc3n2)c1C(=O)Nc1ccc(N2CCOCC2)nc1` [Example 169, 3-methyl-N-[6-(morpholin-4-yl)pyridin-3-yl]-5-(quinoxalin-2-ylamino)-1,2-thiazole-4-carboxamide], for which the pIC50 was less than 4.70.
As for `Cc1nsc(Nc2ccc(C#N)cn2)c1C(=O)Nc1ccc(N[C@@H](C)C(=O)OC(C)(C)C)nc1` [Example 170, tert-butyl N-{5-[({5-[(5-cyanopyridin-2-yl)amino]-3-methyl-1,2-thiazol-4-yl}carbonyl)amino]pyridin-2-yl}alaninate], the pIC50 is less than 4.70.
Consider `Cc1nsc(Nc2ccc(C#N)cn2)c1C(=O)Nc1ccc(NC2CCCN(C(=O)OC(C)(C)C)C2)nc1` (stereo not shown) [Example 171, tert-butyt 3-({5-[({5-[(5-cyanopyridin-2-yl)amino]-3-methyl-1,2-thiazol-4-yl}carbonyl)amino]pyridin-2-yl}amino)piperidine-1-carboxylate], for which the pIC50 is less than 4.70.
Turning to `Cc1nsc(Nc2cnc3ccccc3n2)c1C(=O)Nc1ccc(NC2CC2)nc1` [Example 172, N-[6-(cyclopropylamino)pyridin-3-yl]-3-methyl-5-(quinoxalin-2-ylamino)-1,2-thiazole-4-carboxamide], the pIC50 is less than 4.70.
As for `COc1ccc(NC(=O)c2c(C)nsc2Nc2ccc(C#N)cn2)c(N2CCOCC2)n1` [Example 173, 5-[(5-cyanopyridin-2-yl)amino]-N-[6-methoxy-2-(morpholin-4-yl)pyridin-3-yl]-3-methyl-1,2-thiazole-4-carboxamide], the pIC50 was less than 4.70.
The value for `Cc1nsc(Nc2cnc(C(F)(F)F)cn2)c1C(=O)Nc1ccc(F)c(OCC2CCCN(CC(F)F)C2)c1` (stereo not shown) [Example 335, N-(3-{[1-(2,2-difluoroethyl)piperidin-3-yl]methoxy}-4-fluorophenyl)-3-methyl-5-{[5-(trifluoromethyl)pyrazin-2-yl]amino}-1,2-thiazole-4-carboxamide] was no more than 4.70; that for `Cc1nsc(Nc2cnc(C(F)(F)F)cn2)c1C(=O)Nc1ccc(OC2CCN(CCC(F)(F)F)CC2)nc1` [Example 426, 3-Methyl-5-{[5-(trifluoromethyl)pyrazin-2-yl]amino}-N-(6-{[1-(3,3,3-trifluoro-propyl)piperidin-4-yl]oxy}pyridin-3-yl)-1,2-thiazole-4-carboxamide, Salt with Hydrochloric Acid] was no more than 4.70.
